Converted amounts (≈) assume the structure as drawn.
Experiments:
[1] = cited from earlier work
[2] = Minimum inhibitory concentration (MIC) of amoxicillin; format: cell-based; conditions: in vitro MIC multiplied by a factor of 4
[3] = cited from earlier work; remark: listed apart in the source

For `C=CC1=C(C(=O)O)N2C(=O)[C@@H](NC(=O)/C(=N\O)c3csc(N)n3)[C@H]2SC1` [cefdinir], the solubility of cefdinir ([1]; 30° C.) is listed as 0.43 % (w/v).
For `CCN1CCN(c2cc3c(cc2F)c(=O)c(C(=O)O)cn3C2CC2)CC1` [enrofloxacin], the solubility of enrofloxacin ([1]; 25° C.) is given as 0.25 % (w/v).
For `CC1(C)S[C@@H]2[C@H](NC(=O)[C@H](N)c3ccc(O)cc3)C(=O)N2[C@H]1C(=O)O` [amoxicillin], the “in vivo minimum inhibitory concentration (MIC) as set” value [2] is listed as 0.4 µg/mL and the “MIC value determined in vitro” value [3] is listed as 0.1 µg/mL (≈ 0.274 µM).

— patent US11052043B2, “Sustained-release injectable formulation” (YISSUM RESEARCH DEVELOPMENT COMPANY OF THE HEBREW …, priority 2011, dated 2021)
